Blank lines part the entries; values can stand above or below the compound they belong to.
Tests used:
[1] = tested on: mice bearing LNCaP tumor xenografts; assay: PET/CT imaging of 68Ga-labeled compounds; format: in vivo; conditions: PET/CT images
Procedure: 2.17 PET/CT Imaging and Biodistribution
(§1) Imaging and biodistribution experiments were performed using NODSCID 1L2RyKO male mice. Mice were anesthetized by inhalation with 2% isoflurane in oxygen, and implanted subcutaneously with 1×10^7 LNCaP cells behind left shoulder. Mice were imaged or used in biodistribution studies when the tumor grew up to reach 5-8 mm in diameter during 5-6 weeks.
PET imaging experiments were conducted using Siemens Inveon micro PET/CT scanner. Each tumor bearing mouse was injected 6-8 MBq of 68Ga-labeled tracer through the tail vein under anesthesia (2% isoflurane in oxygen). The mice were allowed to recover and roam freely in their cage. After 50 min, the mice were sedated again with 2% isoflurane in oxygen inhalation and positioned in the scanner. A 10-min CT scan was conducted first for localization and attenuation correction after segmentation for reconstructing the PET images. Then, a 10-min static PET imaging was performed to determined uptake in tumor and other organs. The mice were kept warm by a heating pad during acquisition. For imaging studies acquired at 3 h post-injection (p.i.), the mice were placed in the micro PET/CT scanner at 170 min p.i. Then, the CT acquisitions were conducted as described above, a 15-min static PET imaging was performed to determined uptake in tumor and other organs.

[2] = tested on: mice bearing PSMA-expressing LNCAP cancer xenografts; assay: Biodistribution of 68Ga-labeled compounds; format: in vivo
Procedure: as §1
For biodistribution studies, the mice were injected with the radiotracer as described above. At predetermined time points (1 or 3 h), the mice was anesthetized with 2% isoflurane inhalation, and euthanized by CO2 inhalation. Blood was withdrawn immediately from the heart, and the organs/tissues of interest were collected. The collected organs/tissues were weighed and counted using an automatic gamma counter. The uptake in each organ/tissue was normalized to the injected dose using a standard curve, and expressed as the percentage of the injected dose per gram of tissue (% ID/g).

excretion pathway [1]: excreted mainly via the renal pathway
tumor uptake (qualitative comparison) ([1]; compounds of FIG. 13): comparable
Adrenal glands uptake ([2]; 1 h post-injection): 1.84 ± 0.95 % ID/g
Blood uptake ([2]; 1 h post-injection): 0.70 ± 0.19 % ID/g
Bone uptake ([2]; 1 h post-injection): 0.54 ± 0.20 % ID/g
Brain uptake ([2]; 1 h post-injection): 0.06 ± 0.02 % ID/g
Fat uptake ([2]; 1 h post-injection): 0.45 ± 0.11 % ID/g
Heart uptake ([2]; 1 h post-injection): 0.30 ± 0.06 % ID/g
Intestine uptake ([2]; 1 h post-injection): 0.29 ± 0.06 % ID/g
Kidneys uptake ([2]; 1 h post-injection): 68.5 ± 28.2 % ID/g
Lacrimal uptake ([2]; 1 h post-injection): 1.33 ± 0.90 % ID/g
Liver uptake ([2]; 1 h post-injection): 0.24 ± 0.06 % ID/g
Lungs uptake ([2]; 1 h post-injection): 0.82 ± 0.26 % ID/g
Muscle uptake ([2]; 1 h post-injection): 0.28 ± 0.13 % ID/g
Pancreas uptake ([2]; 1 h post-injection): 0.71 ± 1.04 % ID/g
Salivary uptake ([2]; 1 h post-injection): 0.83 ± 0.22 % ID/g
Seminal uptake ([2]; 1 h post-injection): 0.43 ± 0.31 % ID/g
Spleen uptake ([2]; 1 h post-injection): 1.34 ± 0.54 % ID/g
Stomach uptake ([2]; 1 h post-injection): 0.10 ± 0.03 % ID/g
Tail uptake ([2]; 1 h post-injection): 0.90 ± 0.56 % ID/g
Testes uptake ([2]; 1 h post-injection): 0.35 ± 0.22 % ID/g
Thyroid uptake ([2]; 1 h post-injection): 0.35 ± 0.08 % ID/g
Tumor uptake ([2]; 1 h post-injection): 12.5 ± 2.90 % ID/g
Tumor:Blood ratio ([2]; 1 h post-injection): 18.6 ± 5.54
Tumor:Muscle ratio ([2]; 1 h post-injection): 52.8 ± 24.9
Tumor:kidney ratio ([2]; 1 h post-injection): 0.22 ± 0.15
Urine uptake ([2]; 1 h post-injection): 575 ± 245 % ID/g
Compound: CCCCCCC(NC(=O)C1CCC(CNC(=O)CN2CCN(CC(=O)[O-])CCN(CC(=O)[O-])CCN(CC(=O)[O-])CC2)CC1)C(=O)NCCCCC(NC(=O)NC(CCC(=O)O)C(=O)O)C(=O)O.[68Ga+3] (stereo not shown) [^68Ga-HTK03026]

Adrenal glands uptake ([2]; 1 h post-injection): 2.95 ± 0.92 % ID/g
Blood uptake ([2]; 1 h post-injection): 1.74 ± 0.11 % ID/g
Bone uptake ([2]; 1 h post-injection): 0.16 ± 0.02 % ID/g
Brain uptake ([2]; 1 h post-injection): 0.04 ± 0.01 % ID/g
Fat uptake ([2]; 1 h post-injection): 0.77 ± 0.14 % ID/g
Heart uptake ([2]; 1 h post-injection): 0.52 ± 0.07 % ID/g
Intestine uptake ([2]; 1 h post-injection): 0.32 ± 0.06 % ID/g
Kidneys uptake ([2]; 1 h post-injection): 102 ± 8.91 % ID/g
Lacrimal uptake ([2]; 1 h post-injection): 0.06 ± 0.05 % ID/g
Liver uptake ([2]; 1 h post-injection): 0.44 ± 0.06 % ID/g
Lungs uptake ([2]; 1 h post-injection): 1.75 ± 0.09 % ID/g
Muscle uptake ([2]; 1 h post-injection): 0.31 ± 0.05 % ID/g
Pancreas uptake ([2]; 1 h post-injection): 0.45 ± 0.02 % ID/g
Salivary uptake ([2]; 1 h post-injection): 1.76 ± 0.16 % ID/g
Seminal uptake ([2]; 1 h post-injection): 2.40 ± 2.83 % ID/g
Spleen uptake ([2]; 1 h post-injection): 2.42 ± 0.79 % ID/g
Stomach uptake ([2]; 1 h post-injection): 0.14 ± 0.05 % ID/g
Tail uptake ([2]; 1 h post-injection): 0.91 ± 0.12 % ID/g
Testes uptake ([2]; 1 h post-injection): 0.48 ± 0.06 % ID/g
Thyroid uptake ([2]; 1 h post-injection): 0.74 ± 0.04 % ID/g
Tumor uptake ([2]; 1 h post-injection): 20.7 ± 3.79 % ID/g
Tumor:Blood ratio ([2]; 1 h post-injection): 11.9 ± 1.92
Tumor:Muscle ratio ([2]; 1 h post-injection): 66.6 ± 9.63
Tumor:kidney ratio ([2]; 1 h post-injection): 0.20 ± 0.02
Urine uptake ([2]; 1 h post-injection): 196 ± 50.9 % ID/g
Adrenal glands uptake ([2]; 3 h post-injection): 0.90 ± 0.36 % ID/g
Blood uptake ([2]; 3 h post-injection): 0.52 ± 0.08 % ID/g
Bone uptake ([2]; 3 h post-injection): 0.03 ± 0.03 % ID/g
Brain uptake ([2]; 3 h post-injection): 0.01 ± 0.00 % ID/g
Fat uptake ([2]; 3 h post-injection): 0.40 ± 0.11 % ID/g
Heart uptake ([2]; 3 h post-injection): 0.16 ± 0.03 % ID/g
Intestine uptake ([2]; 3 h post-injection): 0.23 ± 0.10 % ID/g
Kidneys uptake ([2]; 3 h post-injection): 56.1 ± 20.3 % ID/g
Lacrimal uptake ([2]; 3 h post-injection): 0.00 ± 0.00 % ID/g
Liver uptake ([2]; 3 h post-injection): 0.31 ± 0.19 % ID/g
Lungs uptake ([2]; 3 h post-injection): 0.53 ± 0.12 % ID/g
Muscle uptake ([2]; 3 h post-injection): 0.08 ± 0.02 % ID/g
Pancreas uptake ([2]; 3 h post-injection): 0.14 ± 0.03 % ID/g
Salivary uptake ([2]; 3 h post-injection): 0.47 ± 0.07 % ID/g
Seminal uptake ([2]; 3 h post-injection): 1.44 ± 3.04 % ID/g
Spleen uptake ([2]; 3 h post-injection): 0.80 ± 0.31 % ID/g
Stomach uptake ([2]; 3 h post-injection): 0.07 ± 0.04 % ID/g
Tail uptake ([2]; 3 h post-injection): 0.27 ± 0.05 % ID/g
Testes uptake ([2]; 3 h post-injection): 0.17 ± 0.05 % ID/g
Thyroid uptake ([2]; 3 h post-injection): 0.24 ± 0.05 % ID/g
Tumor uptake ([2]; 3 h post-injection): 20.4 ± 5.92 % ID/g
Tumor:Blood ratio ([2]; 3 h post-injection): 39.2 ± 8.42
Tumor:Muscle ratio ([2]; 3 h post-injection): 254 ± 88.9
Tumor:kidney ratio ([2]; 3 h post-injection): 0.40 ± 0.16
Urine uptake ([2]; 3 h post-injection): 339 ± 355 % ID/g
Compound: Nc1ccc(CCCC(=O)NCC(=O)N[C@@H](CCCCNC(=O)CN2CCN(CC(=O)[O-])CCN(CC(=O)[O-])CCN(CC(=O)[O-])CC2)C(=O)NC[C@H]2CC[C@H](C(=O)N[C@@H](Cc3ccc4ccccc4c3)C(=O)NCCCC[C@H](NC(=O)N[C@@H](CCC(=O)O)C(=O)O)C(=O)O)CC2)cc1.[68Ga+3] [^68Ga-HTK03087]

Adrenal glands uptake ([2]; 1 h post-injection): 4.32 ± 0.25 % ID/g
Blood uptake ([2]; 1 h post-injection): 27.0 ± 5.63 % ID/g
Bone uptake ([2]; 1 h post-injection): 1.26 ± 0.08 % ID/g
Brain uptake ([2]; 1 h post-injection): 0.31 ± 0.04 % ID/g
Fat uptake ([2]; 1 h post-injection): 1.83 ± 0.44 % ID/g
Heart uptake ([2]; 1 h post-injection): 6.53 ± 1.30 % ID/g
Intestine uptake ([2]; 1 h post-injection): 1.86 ± 0.06 % ID/g
Kidneys uptake ([2]; 1 h post-injection): 9.11 ± 1.06 % ID/g
Lacrimal uptake ([2]; 1 h post-injection): 0.93 ± 0.36 % ID/g
Liver uptake ([2]; 1 h post-injection): 3.71 ± 0.38 % ID/g
Lungs uptake ([2]; 1 h post-injection): 9.51 ± 0.55 % ID/g
Muscle uptake ([2]; 1 h post-injection): 1.10 ± 0.18 % ID/g
Pancreas uptake ([2]; 1 h post-injection): 1.86 ± 0.04 % ID/g
Salivary uptake ([2]; 1 h post-injection): 3.31 ± 0.79 % ID/g
Seminal uptake ([2]; 1 h post-injection): 1.27 ± 0.18 % ID/g
Spleen uptake ([2]; 1 h post-injection): 2.72 ± 0.69 % ID/g
Stomach uptake ([2]; 1 h post-injection): 0.64 ± 0.05 % ID/g
Tail uptake ([2]; 1 h post-injection): 7.58 ± 4.49 % ID/g
Testes uptake ([2]; 1 h post-injection): 2.98 ± 0.30 % ID/g
Thyroid uptake ([2]; 1 h post-injection): 4.39 ± 0.01 % ID/g
Tumor uptake ([2]; 1 h post-injection): 7.34 ± 0.10 % ID/g
Tumor:Blood ratio ([2]; 1 h post-injection): 0.28 ± 0.05
Tumor:Muscle ratio ([2]; 1 h post-injection): 6.74 ± 1.00
Tumor:kidney ratio ([2]; 1 h post-injection): 0.81 ± 0.11
Urine uptake ([2]; 1 h post-injection): 1.48 ± 0.71 % ID/g
Adrenal glands uptake ([2]; 3 h post-injection): 6.37 ± 1.54 % ID/g
Blood uptake ([2]; 3 h post-injection): 23.9 ± 1.03 % ID/g
Bone uptake ([2]; 3 h post-injection): 1.66 ± 0.39 % ID/g
Brain uptake ([2]; 3 h post-injection): 0.34 ± 0.02 % ID/g
Fat uptake ([2]; 3 h post-injection): 3.53 ± 1.48 % ID/g
Heart uptake ([2]; 3 h post-injection): 5.56 ± 0.43 % ID/g
Intestine uptake ([2]; 3 h post-injection): 1.66 ± 0.14 % ID/g
Kidneys uptake ([2]; 3 h post-injection): 12.3 ± 0.86 % ID/g
Lacrimal uptake ([2]; 3 h post-injection): 3.57 ± 1.56 % ID/g
Liver uptake ([2]; 3 h post-injection): 3.86 ± 0.63 % ID/g
Lungs uptake ([2]; 3 h post-injection): 11.6 ± 0.82 % ID/g
Muscle uptake ([2]; 3 h post-injection): 1.55 ± 0.15 % ID/g
Pancreas uptake ([2]; 3 h post-injection): 1.86 ± 0.20 % ID/g
Salivary uptake ([2]; 3 h post-injection): 4.66 ± 0.58 % ID/g
Seminal uptake ([2]; 3 h post-injection): 1.63 ± 0.13 % ID/g
Spleen uptake ([2]; 3 h post-injection): 2.62 ± 0.93 % ID/g
Stomach uptake ([2]; 3 h post-injection): 0.70 ± 0.10 % ID/g
Tail uptake ([2]; 3 h post-injection): 4.03 ± 0.43 % ID/g
Testes uptake ([2]; 3 h post-injection): 3.07 ± 0.20 % ID/g
Thyroid uptake ([2]; 3 h post-injection): 4.19 ± 0.48 % ID/g
Tumor uptake ([2]; 3 h post-injection): 15.0 ± 2.19 % ID/g
Tumor:Blood ratio ([2]; 3 h post-injection): 0.63 ± 0.11
Tumor:Muscle ratio ([2]; 3 h post-injection): 9.69 ± 1.51
Tumor:kidney ratio ([2]; 3 h post-injection): 1.21 ± 0.10
Urine uptake ([2]; 3 h post-injection): 3.68 ± 1.74 % ID/g
Compound: O=C([O-])CN1CCN(CC(=O)[O-])CCN(CC(=O)NCCCC[C@H](NC(=O)CNC(=O)CCCc2ccc(I)cc2)C(=O)NC[C@H]2CC[C@H](C(=O)N[C@@H](Cc3ccc4ccccc4c3)C(=O)NCCCC[C@H](NC(=O)N[C@@H](CCC(=O)O)C(=O)O)C(=O)O)CC2)CCN(CC(=O)[O-])CC1.[68Ga+3] [^68Ga-HTK03024]
